| Structure (SMILES) | melting point [°C] |
| --- | --- |
| O=C(O)c1cnc2n1CCc1ccccc1C2=C1CCN(CCc2ccc(OCc3ccc4ccccc4n3)cc2)CC1 | 174 |
| COC(=O)C1=CC(C(=O)c2ccc(OCc3ccccc3)c(C)c2O)=CN2CCc3c([nH]c4ccccc34)C12C(=O)OC (stereo not given) | 216 |
| CSc1cc(OCCC[Si](C)(C)C)c(Cl)cc1[N+](=O)[O-] | 51 to 53 |
| CCc1cc2c(s1)-n1c(Cl)nnc1CN=C2c1ccccc1Cl | 133 to 135 |
| COC(=O)c1cc2c(C)ccc(C)c2n1C(=O)Oc1ccccc1 | 83 to 84 |
| O=C(c1ccc(F)cc1)C1CCN(CCCC2(c3ccc(F)cc3)OCCO2)CC1 | 62 to 64 |
| Oc1c(C2NCCc3ccccc32)ccc2ccccc12 (stereo not given) | 117 to 120 |
| NC(=O)N(O)Cc1ccoc1 | 125 to 128 |
| O=C(O)C1CN(c2ccc(-c3noc(CN4C(=O)c5ccccc5C4=O)n3)cc2)C(=O)O1 (stereo not given) | 130 to 135 |
| C=C1c2ccccc2C(n2cncc2C(=O)OC)C1(C)C (stereo not given) | 125 to 126 |
| CCOP(=O)(CCN1CCC(N(CCN)S(=O)(=O)c2ccc(Nc3nccc(Nc4ccc(F)c(F)c4)n3)cc2)CC1)OCC | 88 to 90 |
| CC(c1ccc(O)cc1)c1ccc(O)cc1 | 123 to 125 |
| Cc1ccc(C)c2c1OC(=O)C2c1ccc(C(C)C)cc1 (stereo not given) | 107 to 109 |
| CCS(=O)(=O)Oc1ccccc1S(N)(=O)=O | 90 to 92.5 |
| CCCCCCCCC#CCC#CCC#CCCCC(=O)O | 69 to 70 |
| CC(C)(CF)C(O)C(c1ccc(Cl)cc1Cl)n1cncn1 (stereo not given) | 98 to 100 |
| NS(=O)(=O)NC[C@H]1COc2cc(Cl)ccc2O1 | 99 to 100 |
| O=S(=O)(O)NCc1ccncc1 | 227 to 228 |
| COc1ccc(-c2nc(SC(C)C)[nH]c2-c2ccncc2)cc1 | 206 to 210 |
| COC(=O)c1ncoc1C(C)C | 49 to 50 |
| COC(=O)C(C)Oc1ncn(-c2cccc(C(F)(F)F)c2)n1 (stereo not given) | 135 to 137 |
| CCOC(=O)COc1cccc2c1CCC2=O | 91 to 93 |
| O=C(O)c1ccc(NCCOc2ccc(Br)cc2)cc1 | 190 to 192 |

| Structure (SMILES) | melting point [°C] |
| --- | --- |
| Brc1ncccc1-c1cccnc1 | 97 to 98 |
| CCc1c(N(C(C)=O)c2cc(C)cc(C)c2)[nH]c(=O)[nH]c1=O | 238 to 239 |
| O=C(CC1CCCCC1)Nc1n[nH]c(-c2ccc(F)cc2)c1-c1ccncc1 | 296 to 300 |
| CCC(C)(CC)NC(=NC#N)Nc1cccnc1 | 184 to 186 |
| COc1ccc(CC#N)c(Cl)c1Cl | 118 to 119 |
| COc1cc(C(=O)OCCCCBr)ccc1O | 83 to 88 |
| O=C(O)c1ccc(NC(=O)N(Cc2ccccc2)Cc2ccccc2)cc1 | 210 to 214 |
| COc1cc(OCCOCc2ccccc2)cc2nc(-c3ccncc3)[nH]c(=O)c12 | 228 to 230 |
| Cc1ccccc1C(=O)Nc1ccc(C(=O)N2CCCC(N(C)CC#N)c3ccccc32)cc1 (stereo not given) | 227 to 228 |
| c1ccc2c(c1)C[C@H]1CSC(=Nc3cccc4ncccc34)N1C2 | 194 |
| COc1ccc2[nH]c(C(C)=NO)cc2c1 | 148 to 150 |
| CNC(=S)NCC1CN(c2ccc(N3CCOCC3)c(F)c2)C(=O)O1 (stereo not given) | 158 to 160 |
| CCN(CC)c1nsc(N)c1C#N | 87 to 88 |
| CCCCc1ncc(-c2cccc(C(=O)O)c2)n1Cc1ccccc1Cl | 200 to 202 |
| Cc1c(Cl)nc2c(C=O)cnn2c1Cl | 137 to 139 |
| CCCC1=C(C(=O)OCC)C(c2csc3ccccc23)c2c[nH]nc2N1 (stereo not given) | 222 |
| N=C(NO)c1ccc2nc(N[C@@H]3CCc4ccccc43)ccc2c1 | 236 |
| CCCCCCC(=N)NC(=S)Nc1cccc(C(F)(F)F)c1 | 105 to 107 |
| Cc1c(C(=O)N[C@@H]2CN3CCC2CC3)c2ccccc2n1C | 176 to 177 |
| CCc1nn(C(C)CCCc2ccccc2)c2nc(Cc3ccc(-c4cccc(N)c4)cc3)[nH]c(=O)c12 (stereo not given) | 108 |
| COC(C)(C)C(=O)C(Oc1ccc(Cl)cc1Cl)n1cncn1 (stereo not given) | 53 to 54 |
| O=C1CCC(OCc2ccccc2)N1S(=O)(=O)c1ccccc1 (stereo not given) | 80 to 81 |
| O=Cc1cc(O)c(O)cc1[N+](=O)[O-] | 201 |

| Structure (SMILES) | melting point [°C] |
| --- | --- |
| O=C(O)C(Cc1ccccc1)Nc1cc(-c2ccc(CCc3ccccc3)cc2)ncn1 (stereo not given) | 216 to 218 |
| Fc1ccc(-c2nc3ccc(N4CCC(N5CCCC5)CC4)nn3c2-c2ccnc3[nH]ccc23)cc1 | 261 to 264 |
| Cc1cccn2c(=O)cc(/C=C/c3ccccc3)nc12 | 150 to 152 |
| O=[N+]([O-])c1ccc(Sc2cc(Cl)cc(Cl)c2)c(S(=O)(=O)NC2CN3CCC2CC3)c1 (stereo not given) | 256 |
| CC(=O)N1CCc2cc3c(cc21)C(=O)C(=O)N3 | > 250 |
| CCNC(=O)c1ccc(N2CCNCC2)c(F)c1 | 142 to 145 |
| CCOC(=O)C(C#N)=C(c1ccc(F)cc1)c1ccc(F)cc1 | 114 to 116 |
| NC(=O)CCc1ccc(CNC(=O)[C@@H](CCCNC(N)=N[N+](=O)[O-])NC(=O)C(c2ccccc2)c2ccccc2)cc1 | 139 to 140 |
| CC(=O)OCCN1C(=O)C(=Cc2cc(C(C)(C)C)c(O)c(C(C)(C)C)c2)SC1=S | 140 to 143 |
| O=C(Cc1cccnc1)[N+]1([O-])CCC(C2c3ccc(Cl)cc3CCc3cccnc32)CC1 (stereo not given) | 117 to 118 |
| N#CC(C#N)=C1N(CCCN2CCCCC2)CCN1C1CCN(CCF)CC1 | 56 to 57 |
| CC(=O)Nc1nc(N)nc(NC2CC2)n1 | 190 to 195 |
| Nc1ncc(-c2cc(N3CCOCC3)nc(-n3c(C(F)F)nc4ccccc43)n2)cn1 | 281 to 285 |
| COc1c(C(=O)NN=Cc2ccc(Cl)cc2)[nH]c2ccccc12 | 249 to 251 |
| c1ccc2c(c1)CCC21CCN(CCCCN2CCC3(CCc4ccccc43)CC2)CC1 | 113 to 115 |
| CCC1=C([N+](=O)[O-])C(c2cccc(Cl)c2Cl)c2c[nH]nc2N1 (stereo not given) | 250 |
| CCCCCOc1ccc(-c2cnc(C#N)nc2)cc1 | 100 |
| CN(N=Cc1ccc(C#N)cc1)C(=O)c1[nH]c2ccccc2c1-c1ccccc1 | 194 to 196 |
| CCN(C/C=C/C#CC(C)(C)C)Cc1cccc(N(C)Cc2cccc(-c3ccsc3)c2)c1 | 51 to 52 |
| Cn1cc(NC=O)cc1C(=O)O | 208 to 210 |
| O=C/C=C/c1c(-c2ccc(F)cc2)n(CCc2ccccc2)c(=O)c2ccccc12 | 133 to 134 |
| Fc1ccc2c(-c3ccc(OC[C@H]4CO4)cc3)noc2c1 | 132 to 133 |

More lines, now with the values ahead:

| melting point [°C] | Structure (SMILES) |
| --- | --- |
| 155 to 156 | O=C(Cc1ccc(Cl)c(Cl)c1)N1CCc2occc2C1CO (stereo not given) |
| 248 to 252 | CCNCC1CCN(c2cc3c(cc2F)c(=O)c(C(=O)O)cn3CC)C1 (stereo not given) |
| 202 to 204 | Oc1ccc(OCCCCOc2ccc(O)cc2)cc1 |
| 145 to 146 | COc1ccc2c(c1)cc(-c1nc(C)no1)n2-c1ccc(CNC(=O)C2(N)CC2)cc1 |
| 136 to 138 | Cc1cc(CO)cc(C#N)n1 |
| 185 to 186 | CC(=O)C(CCC#N)(CCC#N)C(C)=O |
| 78 to 81 | COc1c(Cl)ccc(-c2cc(N)c(Cl)c(C(=O)N3CC=CCO3)n2)c1F |
| 208 | NC(=O)c1[nH]cnc1OC(=O)C(=Cc1ccccc1)c1ccccc1 |
| 127 to 129 | COc1cc(CN2CCc3c(sc(N)c3C(=O)c3ccc4ccccc4c3)C2)cc(OC)c1OC |
| 122 to 123 | CCOc1ccc2[nH]ccc2c1OCc1ccccc1 |
| 119 to 121 | COC(=O)c1ccccc1-c1ccc(C)cc1 |
| 237 to 238 | CNC(=O)c1cc2c(nc(C)n2C)c2c1CCC1(Cc3ccccc3C1)N2 |
| 120 | COC(=O)C1=C(C)NC(C)=C(C(=O)OCCCCCCCCCCO)[C@H]1c1cccc2nonc12 |
| 92 to 94 | O=C(O)CCCCCSc1ccc(O)cc1 |
| 96 to 99 | COCc1nc2cnc3ccccc3c2n1CC(C)C |
| 154 to 155 | O=S(=O)(c1ccccc1)n1c(SC(F)(F)F)nc(-c2ccc(F)cc2)c1-c1ccc(F)cc1 |
| 140 to 141 | CCOC(=O)Cc1ccc(-c2nc(COc3ccc(COc4nn(-c5ccccc5)cc4/C=C\c4cnn(CC)c4)cc3OC)c(C)o2)cc1 |
| 198 to 203 | COc1ccc(CS(=O)(=O)c2ccc(S(N)(=O)=O)s2)cc1 |
| 207 | CC(C)N(C)c1cc2c(cc1Cl)NC(=O)CC(c1cccc(-n3nncc3CO)c1)=N2 |

| melting point [°C] | Structure (SMILES) |
| --- | --- |
| 312 to 316 | CC(C)c1ccc2nc3ccc(C(=O)O)cc3c(=O)n2c1 |
| 166 to 168 | C=C(C)Cc1c(C)c2c(c(C)c1O)CC(C)(C)N2C=O |
| 165 to 167 | COc1ccc2c(c1)c(N1CCN(C)CC1)nn2S(=O)(=O)c1ccccc1 |
| 92 to 95 | CON(C)C(=O)CNC(=O)OC(C)(C)C |
| 210 | N#CC(c1ccc(O)cc1)c1c(Cl)cc(-n2ncc(=O)[nH]c2=O)cc1Cl (stereo not given) |
| 53 to 55 | COC(c1ccccc1)C(C)([N+](=O)[O-])[N+](=O)[O-] (stereo not given) |
| 114 to 118 | Cc1ccc(C=CCC(C(=O)C=Cc2ccc(Cl)cc2)c2ccccc2)cc1 (stereo not given) |
| 221 | COC(=O)c1cnc(N)nc1OC |
| 193 to 194 | Nc1nc(Nc2ccccc2)c2ncn(C3CC(F)C(CO)O3)c2n1 (stereo not given) |
| 70 | O=S(=O)(CC=C1CCCCC1)c1ccccc1 |
| 127 to 129 | CC(=O)OCC1OC(n2cc(C3=C(c4c[nH]c5ncccc45)C(=O)N(COCc4ccccc4)C3=O)c3cccnc32)C(OC(C)=O)C(OC(C)=O)C1OC(C)=O (stereo not given) |
| 136 to 137 | CCOc1nn(Cc2ccc(OCn3nnc4ccccc43)cc2)cc1CCC(=O)O |
| 178 to 180 | CC(C)(C)OC(=O)NCc1ccc(Nc2ncc(Br)cc2[N+](=O)[O-])cc1 |
| 84 to 85 | O=C(C1COc2ccccc2O1)N1CCNCC1 (stereo not given) |
| 161 | Cc1nccc(C#N)c1OC1SCC(O)C(O)C1O (stereo not given) |
| 99 to 101 | COc1cccc(-c2nn(Cc3ccccc3)c3ncnc(Cl)c23)c1 |
| 118 | NS(=O)(=O)c1cccc(C(=O)CCl)c1 |
| 251 to 252 | NNC(=O)c1ccc2[nH]ncc2c1 |

From a melting point compilation (Tetko et al.; mined from patent text by program, amines drawn as free bases though some values may be those of a salt)
